The record followed here is ChEMBL document CHEMBL3044839, “Bisdesmosidic saponins from Securidaca longepedunculata roots: evaluation of deterrency and toxicity to Coleopteran storage pests” (2009).

Assay [1] relates to Callosobruchus maculatus. Description: Insecticidal activity against Callosobruchus maculatus in compound pretreated stored cowpea commodities assessed as decrease in number of adults emerging in F1 generation at 2.5 mg. Format: functional, organism-based.
Assay [2] has as its system Callosobruchus maculatus. Briefly: Insecticidal activity against Callosobruchus maculatus in compound pretreated stored cowpea commodities assessed as decrease in egg hatching on the surface of seeds at 2.5 mg. Format: functional, organism-based.
The subject of assay [3] is Callosobruchus maculatus. Description: Insecticidal activity against adult Callosobruchus maculatus in compound pretreated stored cowpea commodities assessed as decrease in number of oviposted eggs on the surface of seeds at 2.5 mg by choice bioassay. The format is functional, organism-based.
Assay [4] concerns Sitophilus zeamais. Description: Insecticidal activity against adult Sitophilus zeamais in compound pretreated stored maize commodities assessed as mortality at 2.5 mg measured after 2 weeks. Format: functional, organism-based.
Assay [5] has as its system Sitophilus zeamais. Description: Insecticidal activity against adult Sitophilus zeamais in compound pretreated stored maize commodities assessed as decrease in number of damaged seeds at 2.5 mg measured after 2 weeks (reference value: >95%). The format is functional. Also noted: scale not given: the % may be the effect or the level left.

Each structure is given as a SMILES string. Active and inactive are the calls of the source. The rule behind the calls is not given here. Some results are limits rather than exact numbers.

Take `COc1ccc(C=CC(=O)O[C@@H]2[C@H](O)[C@@H](O[C@@H]3O[C@@H](C)[C@H](O[C@@H]4OC[C@@H](O)[C@H](O[C@@H]5OC[C@H](O)[C@H](O)[C@H]5O)[C@H]4O)[C@@H](O[C@@H]4OC[C@](O)(CO)[C@H]4O)[C@H]3O)[C@H](OC(=O)[C@]34CCC(C)(C)C[C@H]3C3=CC[C@@H]5[C@@]6(C)C[C@H](O)[C@H](O[C@@H]7O[C@H](CO)[C@@H](O)[C@H](O)[C@H]7O)[C@@](C)(C(=O)O)[C@@H]6CC[C@@]5(C)[C@]3(C)CC4)O[C@@H]2C)cc1`: the result in assay [1], in assay [2] and in assay [3] was Active. Moreover, the mortality entry in assay [4] was “Active”. In addition, in assay [5], the Activity is on record as less than 35%.
